Measured values: patent US8802672B2, “Pyrimidinyl-piperazines useful as D3/D2 receptor ligands” (Richter Gedeon Nyrt., priority 2007, dated 2014)

Columns and labels:
male Wistar rats [1] = assay: Catalepsy test; format: in vivo; details: rat; for Catalepsy (MED): oral, minimum effective cataleptic dose; for TI, therapeutic index - catalepsy MED divided by amphetamine hypermotility ED50: in vivo
Method: Thirty minutes after the oral treatment with the test compounds male Wistar rats weighing 200-220 g (n=10/group) were placed in extra-ordinary position: placing both forepaws of the rat on a 10 cm high podium. […] The frequency of cataleptic animals was determined at one, two, three, four and five hours after the treatment. Minimum effective (cataleptic) dose was defined as the dose causing catalepsy at least at two readings (i.e. either at two time points in the same animal or in two different animals at any of the time points).

[2] = molecular target: rat recombinant D3 receptors (Rattus norvegicus (Rat), UniProt P19020); assay: D3 receptor binding; details: for Ki: [3H]spiperone, rat recombinant D3 in Sf9 cells
rat recombinant D3 receptors, sequence (P19020 whole entry): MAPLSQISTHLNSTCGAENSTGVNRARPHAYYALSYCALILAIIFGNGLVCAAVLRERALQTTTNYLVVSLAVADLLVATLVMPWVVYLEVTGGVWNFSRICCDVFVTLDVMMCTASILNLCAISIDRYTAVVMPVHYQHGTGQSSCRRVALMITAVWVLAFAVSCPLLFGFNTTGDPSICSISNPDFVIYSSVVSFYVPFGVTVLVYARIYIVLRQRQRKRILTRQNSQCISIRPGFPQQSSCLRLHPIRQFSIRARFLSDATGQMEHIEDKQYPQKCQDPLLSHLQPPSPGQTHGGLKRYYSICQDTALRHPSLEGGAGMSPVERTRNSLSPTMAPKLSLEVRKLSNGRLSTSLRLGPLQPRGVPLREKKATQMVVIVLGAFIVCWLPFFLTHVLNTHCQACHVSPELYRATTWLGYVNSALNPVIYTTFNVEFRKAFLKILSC

[3] = molecular target: D2 receptor (rat brain striatal membrane preparation) (Rattus norvegicus (Rat), UniProt P61169); assay: D2 receptor binding; details: [3H]spiperone, rat striatal membranes
D2 receptor (rat brain striatal membrane preparation), sequence (P61169 whole entry): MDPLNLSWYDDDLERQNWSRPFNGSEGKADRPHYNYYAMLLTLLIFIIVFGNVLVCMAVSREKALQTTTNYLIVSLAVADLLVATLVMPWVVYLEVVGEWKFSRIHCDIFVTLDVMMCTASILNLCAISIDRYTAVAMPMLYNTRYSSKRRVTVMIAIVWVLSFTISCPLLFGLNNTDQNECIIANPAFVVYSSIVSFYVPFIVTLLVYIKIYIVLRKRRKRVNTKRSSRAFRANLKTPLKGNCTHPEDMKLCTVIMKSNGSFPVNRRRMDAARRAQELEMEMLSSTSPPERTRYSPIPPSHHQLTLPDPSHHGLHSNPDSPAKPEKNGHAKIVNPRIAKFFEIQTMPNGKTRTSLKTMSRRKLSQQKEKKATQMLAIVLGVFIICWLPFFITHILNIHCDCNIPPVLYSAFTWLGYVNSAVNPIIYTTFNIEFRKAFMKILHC
Method: Non-specific binding was determined in the presence of 1 μM (+) butaclamol.

[4] = molecular target: adrenergic alpha-1 receptors (rat cortical membrane preparation); assay: Alpha-1 receptor binding; details: [3H]-prazosine, rat cortical membranes; read-out: α-1 Ki
Method: The non-specific binding was determined in the presence of 10 μM phentolamine.

male Wistar rats [5] = assay: Amphetamine-induced hypermotility; format: in vivo; details: oral, rat, d-amphetamine 0.5 mg/kg sc.; for ED50: read-out: Inhibition of amphetamine-induced hypermotility (ED50)
Method: 4. Amphetamine-Induced Hypermotility
One hour after the oral administration of doses of the test compound or vehicle, male Wistar rats were subcutaneously treated with d-amphetamine (0.5 mg/kg, sc.) and were individually placed in activity cages for one hour. Locomotor activity was measured in a four-channel activity monitor equipped with infrared photobeams Horizontal movement was determined as the number of beam interruptions. Mean±SE of horizontal activity data of each group was calculated. Percent inhibition of amphetamine-induced increase in locomotion was calculated for each dose of the tested compound. The ED-50 value was determined by linear regression fitted to the dose-response plot.

male Wistar rats [6] = assay: Scopolamine-induced learning disturbance in the water-labyrinth; format: in vivo, rat
Method: 6. Scopolamine-Induced Learning Disturbance in the Water-Labyrinth
The learning process of rats was assessed in a 3-choice point water-labyrinth system. The number of directional turning errors was recorded in three daily trials for three experimental days. Male Wistar rats weighing 180-200 g (n=10 per groups) were treated orally with vehicle or the test compounds 1 hour before each daily session. Scopolamine (3 mg/kg ip.) as amnestic agent was injected 30 minutes prior to the first daily trial. Mean±SE of errors committed in all the trials was calculated in each group. Percent inhibition of scopolamine-induced increase in the number of errors was calculated for each dose of the tested compound.

## CNc1nc(Cl)c(Cl)c(N2CCN(CC[C@H]3CC[C@H](NC(C)=O)CC3)CC2)n1 [Compound 1, Trans-N-(4-{2-[4-(5,6-dichloro-2-methylamino-pyrimidin-4-yl)-piperazin-1-yl]-ethyl}-cyclohexyl)-acetamide]
Male Wistar rats [1]
  Catalepsy (MED): 100 mg/kg
  TI, therapeutic index - catalepsy MED divided by amphetamine hypermotility ED50: 714
[2]
  Sel. = D2/D3 selectivity, Ki for D2 receptor divided by Ki for D3 receptor: 22
  Ki: < 1 nM
[3]
  Ki: 15 to 50 nM

## CNc1nc(Cl)c(Cl)c(N2CCN(CC[C@H]3CC[C@H](NC(N)=O)CC3)CC2)n1 [Compound 2, Trans-(4-{2-[4-(5,6-dichloro-2-methylamino-pyrimidin-4-yl)-piperazin-1-yl]-ethyl}-cyclohexyl)-urea]
[4]
  Ki: > 1000 nM
[2]
  Sel. = D2/D3 selectivity, Ki for D2 receptor divided by Ki for D3 receptor: 27

## CCNc1nc(Cl)c(Cl)c(N2CCN(CC[C@H]3CC[C@H](NC(C)=O)CC3)CC2)n1 [Compound 6, trans-N-(4-{2-[4-(5,6-dichloro-2-ethylamino-pyrimidin-4-yl)-piperazin-1-yl]-ethyl}-cyclohexyl)-acetamide]
[4]
  Ki: > 1000 nM
[2]
  Sel. = D2/D3 selectivity, Ki for D2 receptor divided by Ki for D3 receptor: 23

## CNc1nc(Cl)c(Cl)c(N2CCN(CC[C@H]3CC[C@H](NC(=O)N4CCOCC4)CC3)CC2)n1 [Compound 7, trans-morpholine-4-carboxylic acid (4-{2-[4-(5,6-dichloro-2-methylamino-pyrimidin-4-yl)-piperazin-1-yl]-ethyl}-cyclohexyl)-amide]
[4]
  Ki: > 1000 nM

## CNc1nc(Cl)c(Cl)c(N2CCN(CC[C@H]3CC[C@H](NC(=O)N(C)C)CC3)CC2)n1 [Compound 8]
Male Wistar rats [1]
  Catalepsy (MED): >25 mg/kg
  TI, therapeutic index - catalepsy MED divided by amphetamine hypermotility ED50: >179
Male Wistar rats [5]
  Inhibition of amphetamine-induced hypermotility (ED50): 0.14 mg/kg
[4]
  Ki: > 1000 nM
Male Wistar rats [6]; dose 0.025 mg/kg oral
  % inhibition of scopolamine-induced learning disturbance: 38%
Male Wistar rats [6]; dose 0.05 mg/kg oral
  % inhibition of scopolamine-induced learning disturbance: 65%
Male Wistar rats [6]; dose 1 mg/kg oral
  % inhibition of scopolamine-induced learning disturbance: 31%
[2]
  Sel. = D2/D3 selectivity, Ki for D2 receptor divided by Ki for D3 receptor: 7
  Ki: 1 to 3 nM
[3]
  Ki: 15 to 50 nM

## CCNC(=O)N[C@H]1CC[C@H](CCN2CCN(c3nc(NC)nc(Cl)c3Cl)CC2)CC1 [Compound 10, Trans-1-(4-{2-[4-(5,6-dichloro-2-methylamino-pyrimidin-4-yl)-piperazin-1-yl]-ethyl}-cyclohexyl)-3-ethyl-urea]
[2]
  Sel. = D2/D3 selectivity, Ki for D2 receptor divided by Ki for D3 receptor: 17

## CCC(=O)N[C@H]1CC[C@H](CCN2CCN(c3nc(NC)nc(Cl)c3Cl)CC2)CC1 [Compound 11]
[4]
  Ki: > 1000 nM
[2]
  Sel. = D2/D3 selectivity, Ki for D2 receptor divided by Ki for D3 receptor: 43
  Ki: < 1 nM
[3]
  Ki: 5 to 15 nM

## Cc1cc2c(s1)Nc1ccccc1N=C2N1CCN(C)CC1 [Olanzapine, reference compound]
Male Wistar rats [5]
  ED50: 1.8 mg/kg
Male Wistar rats [6]; dose 1 mg/kg oral
  % inhibition of scopolamine-induced learning disturbance: −12%
Male Wistar rats [6]; dose 3 mg/kg oral
  % inhibition of scopolamine-induced learning disturbance: −49%

## Cc1nc2n(c(=O)c1CCN1CCC(c3noc4cc(F)ccc34)CC1)CCCC2 [Risperidone, reference compound]
Male Wistar rats [5]
  ED50: 0.15 mg/kg
Male Wistar rats [6]; dose 0.5 mg/kg oral
  % inhibition of scopolamine-induced learning disturbance: −15%
